Test results published in paper PMC8330190 (Signal Transduction and Targeted Therapy, 2021).

Tested on: SARS-CoV-2 HR1 target mimic peptide HR1P
Type: binding

CC[C@H](C)[C@H](NC(=O)[C@H](Cc1ccc(O)cc1)NC(=O)[C@H](CO)NC(=O)[C@H](CCC(=O)O)NC(=O)[C@H](CC(N)=O)NC(=O)[C@H](CC(C)C)NC(=O)[C@H](C)NC(=O)[C@H](CCCCN)NC(=O)[C@@H](NC(=O)[C@@H](NC(=O)[C@H](CCC(N)=O)NC(=O)[C@H](CCC(N)=O)NC(=O)[C@H](CC(C)C)NC(=O)[C@H](CO)NC(=O)[C@H](CC(C)C)NC(=O)[C@H](CCSC)NC(=O)[C@H](CCC(=O)O)NC(=O)[C@H](Cc1ccc(O)cc1)NC(=O)[C@@H](NC(=O)[C@H](CC(C)C)NC(=O)[C@H](CC(=O)O)NC(=O)[C@H](CC(C)C)NC(=O)[C@H](CC(C)C)NC(=O)[C@@H](NC(=O)[C@@H](NC(=O)[C@H](CC(N)=O)NC(=O)[C@@H](NC(=O)[C@H](CCC(N)=O)NC(=O)[C@@H](NC(=O)[C@H](CC(C)C)NC(=O)[C@H](CO)NC(C)=O)[C@@H](C)O)[C@@H](C)CC)[C@@H](C)O)[C@@H](C)O)[C@@H](C)O)C(C)C)C(C)C)C(=O)N[C@@H](CC(=O)O)C(=O)N[C@@H](CC(C)C)C(=O)N[C@@H](CCCCN)C(=O)N[C@@H](CCC(=O)O)C(=O)N[C@@H](CC(C)C)C(=O)NCCOCCOCCOCCOCCOCCOCCOCCOCCC(=O)N[C@@H](CCCCNC(=O)CCC(=O)O[C@H]1CC[C@@]2(C)C(=CC[C@H]3[C@@H]4CC[C@H]([C@H](C)CCCC(C)C)[C@@]4(C)CC[C@@H]32)C1)C(N)=O [MERS-LP]
Tm of complex with HR1P (binding stability): 47 °C

CC[C@H](C)[C@H](NC(=O)[C@H](C)NC(=O)[C@H](CCC(=O)O)NC(=O)[C@H](CCC(N)=O)NC(=O)[C@H](CC(C)C)NC(=O)[C@H](CCCNC(=N)N)NC(=O)[C@H](CC(N)=O)NC(=O)[C@H](CCSC)NC(=O)[C@H](CCC(=O)O)NC(=O)[C@H](CC(=O)O)NC(=O)[C@H](CCC(N)=O)NC(=O)[C@H](CC(C)C)NC(=O)[C@H](CC(=O)O)NC(=O)[C@H](CC(C)C)NC(=O)[C@H](Cc1ccccc1)NC(=O)[C@@H](NC(=O)[C@@H](NC(=O)[C@H](CC(N)=O)NC(=O)[C@@H](NC(=O)[C@H](Cc1ccc(O)cc1)NC(=O)[C@H](CC(=O)O)NC(=O)[C@H](CC(C)C)NC(=O)[C@H](CO)NC(C)=O)[C@@H](C)CC)C(C)C)[C@@H](C)O)C(=O)N[C@@H](CCCCN)C(=O)N[C@H](C(=O)N[C@@H](CC(C)C)C(=O)N[C@@H](CC(N)=O)C(=O)N[C@@H](CCC(N)=O)C(=O)N[C@@H](CO)C(=O)N[C@@H](Cc1ccc(O)cc1)C(=O)N[C@H](C(=O)N[C@@H](CC(N)=O)C(=O)N[C@@H](CC(C)C)C(=O)N[C@@H](CCCCN)C(=O)N[C@@H](CC(=O)O)C(=O)N[C@H](C(=O)NCCOCCOCCOCCOCCOCCOCCOCCOCCC(=O)N[C@@H](CCCCNC(=O)CCC(=O)O[C@H]1CC[C@@]2(C)C(=CC[C@H]3[C@@H]4CC[C@H]([C@H](C)CCCC(C)C)[C@@]4(C)CC[C@@H]32)C1)C(N)=O)[C@@H](C)CC)[C@@H](C)CC)C(C)C [OC43-LP]
Tm of complex with HR1P (binding stability): 63 °C
